# Assay results reported in US9687470B2, “Compounds for use in the treatment of filariasis” (RHEINISCHE FRIEDRICH-WILHELMS UNIVERSITAET BONN, priority 2011, dated 2017).
# “Also recorded” adds a separate entry of the source.
# Tests used:
# [1] = Stability of corallopyronin A injection samples in PBS by analytical HPLC; type: physicochemical; conditions: samples in PBS used for injection; days 1, 14 and 28; compared with purified corallopyronin A
# Procedure: To verify that the corallopyronin A was stable over the whole period of the in vivo experiment, aliquots of the samples in phosphate buffered saline (PBS, PAA Laboratories, Colbe, Germany) which were used for injection were analyzed by High performance liquid chromatography (HPLC). The conditions for the analytical HPLC runs were the same as above. […] Five weeks post infection worms were recovered from the pleural cavity by lavage with PBS. The worms were sorted by sex with the aid of a dissecting microscope and their lengths measured. 10 female worms from each treatment were individually frozen for DNA extraction.
# [2] = test system: Wolbachia of A. albopictus; experiment: Susceptibility of Wolbachia to corallopyronin A in vitro (infected C6/36 cells, qPCR 16S-rRNA/actin ratio); type: cell-based
# Procedure: The activity of corallopyronin A against Wolbachia was tested in vitro using the Aedes albopictus C6/36 cell line infected with Wolbachia of A. albopictus.
# The susceptibility of Wolbachia towards corallopyronin A was investigated as described previously (Henrichfreise, Schiefer et al., “Functional conservation of the lipid II biosynthesis pathway in the cell wall-less bacteria Chlamydia and Wolbachia: why is lipid II needed?”, (2009) Mol Microbiol, 73 (5): 913-923) with some modifications.
# The A. albopictus cell line C6/36 (European Collection of Cell Cultures) infected with Wolbachia from A. albopictus B containing supernatant as described in Turner et al., J Immunol 2006, 177(2): 1240-1249 were cultured in 96-well plates by seeding each well with 1×10^4 insect cells. The cells were incubated for 9 days at 26° C. in L15 Leibovitz's medium (Invitrogen, Darmstadt, Germany) supplemented with 5% fetal calf serum (FCS, Invitrogen), 1% nonessential amino acids (PAA Laboratories, Colbe, Germany), 0.59 mg/ml tryptose phosphate broth (Sigma, Munich, Germany) and 0.01% penicillin/streptomycin (PAA Laboratories) with and without 4 μg/ml doxycycline (Merck, Darmstadt, Germany) and 1, 0.1 and 0.01 μg/ml corallopyronin A in duplicate. The medium was replaced every third day. The treated cells were harvested on day 9.
# Extraction of genomic DNA was performed with the QIAamp Kit (Qiagen, Hilden, Germany) according to the instructions of the manufacturer. Depletion of Wolbachia was monitored by quantitative real-time PCR (qPCR) using the primers 16S-rRNA-Fw (5′-[…]-3′, SEQ ID NO: 1) and 16S-rRNA-Rev (5′-GTGTGGCTGATCATCCTCT-3′, SEQ ID NO: 2) which target the 16S-rRNA gene (GenBank Accession #: X61767) of Wolbachia and Ac-Fw (5′-[…]-3′, SEQ ID NO: 3) and Ac-Rev (5′-[…]-3′, SEQ ID NO: 4) for actin (GenBank Accession #: DQ657949) of the C6/36 cells.
# The PCR reaction mixtures were 20 μl of 1× HotStar Taq Buffer (Qiagen), 3 mM MgCl2, 0.2 mM dNTPs (PeqLab, Erlangen, Germany), 0.5 μM forward and reverse 16S-rRNA primers or 0.3 μM forward and reverse actin primers, 0.2 μl of a 1:1000 dilution in DMSO of SybrGreen (Roche, Mannheim, Germany), 0.5 units HotStar Taq polymerase and 2 μl of gDNA. […] Specific amplification was confirmed by a melting curve analysis from 72° C. to 95° C. with fluorescence acquired on the FAM channel at 1° C. intervals. The copy number of each gene was calculated using a plasmid containing the appropriate insert as standard curve. […]
# Normal distribution of the data was calculated using the D′Agostino & Pearson omnibus normality test. […] Alls statistics were calculated using GraphPad Prism version 5.00 for Windows, GraphPad Software, San Diego Calif. […]
# [3] = test system: C6/36 cells; type: cell-based, Aedes albopictus
# [4] = Tolerability in infected BALB/c mice; type: in vivo; conditions: 35 mg/kg/day dosage
# Procedure: Female BALB/c mice aged 6-8 weeks were purchased from Charles River, Sulzfeld, Germany. The mice were infected with L. sigmodontis larvae as described in by Al-Qaoud K M et al. Beginning the day after the infection, the mice were untreated or given intra-peritoneal injections of: 10% dimethyl sulfoxide (DMSO) (vehicle control), 50 mg/kg/day doxycycline (Merck), or 35 mg/kg/day of corallopyronin A. Doxycycline was given for 14 days while corallopyronin A and 10% DMSO (vehicle control) were given for 28 days. All substances were diluted in phosphate buffered saline (PBS, PAA Laboratories).
# [5] = test system: Wolbachia; experiment: Susceptibility of Wolbachia in vivo: depletion from L. sigmodontis worms in infected BALB/c mice (qPCR ftsZ/actin); parameters: species or system Wolbachia of Litomosoides sigmodontis in BALB/c mice
# Procedure: The effect of corallopyronin A in vivo was determined in a rodent model of BALB/c mice infected with the rodent filarial worm Litomosoides sigmodontis host to Wolbachia. L. sigmodontis a well established model for human filarial worms. A key advantage of this model is the fact that administration of anti-wolbachial drugs concomitant with infection by the L. sigmodontis larvae allows for a rapid assessment of activity on the day the worms are retrieved from the infected animals.
# The L. sigmodontis life cycle was maintained at the Institute for Medical Microbiology, Immunology and Parasitology as described by Al-Qaoud KM et al. (1997) “Infection of BALB/c mice with the filarial nematode Litomosoides sigmodontis: role of CD4+T cells in controlling larval development”, Infect Immun 65: 2457-2461.
# Female BALB/c mice aged 6-8 weeks were purchased from Charles River, Sulzfeld, Germany. […]
# To control for degradation over time, an aliquot of corallopyronin A was frozen for HPLC analysis on days 1, 14 and 28. […] The worms were sorted by sex with the aid of a dissecting microscope and their lengths measured. […]
# Depletion of Wolbachia was monitored by qPCR using the primers Ls-FtsZ-Fw (5′-[…]-3′, SEQ ID NO: 5) and Ls-FtsZ-Rev (5′-TTGCAATTACTGGTGCTGC-3′, SEQ ID NO: 6) and hybridization probe (5′-6-FAM-[…]-TAMRA-3′, SEQ ID NO: 7) which target ftsZ (GenBank Accession #: AJ010271), a single copy number gene of Wolbachia. […] Cycling conditions were: 95° C. for 15 minutes followed by 35 cycles of 94° C. for 4 seconds, 58° C. for 30 seconds and 72° C. for 15 seconds with fluorescence acquired on the FAM channel as described in Arumugam S et al., Int J Parasitol 2008, 38: 981-987.
# To normalize the ftsZ content of worms of different lengths, the L. sigmodontis actin gene (GenBank Accession No.: GU971367) was quantified by qPCR using the primers Ac-Fw (5′-[…]-3′, SEQ ID NO: 8) and Ac-Rev (5′-[…]-3′, SEQ ID NO: 9). […]
# [6] = test system: Litomosoides sigmodontis; experiment: Worm length (larval development) of L. sigmodontis recovered from treated BALB/c mice; type: in vivo, Litomosoides sigmodontis in BALB/c mice; conditions: worms recovered five weeks post infection
# Procedure: The effect of corallopyronin A in vivo was determined in a rodent model of BALB/c mice infected with the rodent filarial worm Litomosoides sigmodontis host to Wolbachia. L. sigmodontis a well established model for human filarial worms. A key advantage of this model is the fact that administration of anti-wolbachial drugs concomitant with infection by the L. sigmodontis larvae allows for a rapid assessment of activity on the day the worms are retrieved from the infected animals. […] The L. sigmodontis life cycle was maintained at the Institute for Medical Microbiology, Immunology and Parasitology as described by Al-Qaoud KM et al. (1997) “Infection of BALB/c mice with the filarial nematode Litomosoides sigmodontis: role of CD4+T cells in controlling larval development”, Infect Immun 65: 2457-2461. Female BALB/c mice aged 6-8 weeks were purchased from Charles River, Sulzfeld, Germany. […] The worms were sorted by sex with the aid of a dissecting microscope and their lengths measured. […] Normal distribution of the data was calculated using the D′Agostino & Pearson omnibus normality test. […] Alls statistics were calculated using GraphPad Prism version 5.00 for Windows, GraphPad Software, San Diego Calif. […]
Compound,degradation of corallopyronin A (HPLC) [1],"depletion of Wolbachia relative to doxycycline ([2]; 1 μg/ml versus 4 μg/ml doxycycline, nine days, C6/36 cell line)","depletion of Wolbachia ([2]; beginning at 0.1 μg/ml, nine days of treatment, C6/36 cell line) [%]","anti-wolbachial effect in vitro ([2]; in vitro tests, summary statement)","dose dependence of Wolbachia depletion ([2]; nine day assay, 1, 0.1 and 0.01 μg/ml)",toxicity to cells / cell growth [3],tolerability in mice [4],visually apparent toxic effects in mice [4],Wolbachia depletion from worms relative to doxycycline ([5]; 35 mg/kg/day for 28 days versus doxycycline 50 mg/kg/day for 14 days),"depletion of the Wolbachia compared to the control ([5]; BALB/c mice infected with L. sigmodontis, 35 mg/kg/day intra-peritoneal for 28 days) [%]","anti-wolbachial effect in vivo ([5]; in vivo tests, summary statement)","worm length ([6]; 35 mg/kg/day intra-peritoneal for 28 days, control worms 38 mm) [mm]","worm length (median) ([6]; doxycycline 50 mg/kg/day intra-peritoneal for 14 days, untreated 38 mm, vehicle 34 mm) [mm]"
"C/C=C/C/C=C(/C)[C@H](O)CC/C(C)=C/C=C(\C)C(=O)c1c(O)cc([C@H](C)CC/C=C/NC(=O)OC)oc1=O [corallopyronin A, methyl N-[(1E)-5-[4-hydroxy-3-[(2E,4E,9Z,12E)-8-hydroxy-2,5,9-trimethyltetradeca-2,4,9,12-tetraenoyl]-2-oxo-2H-pyran-6-yl]hex-1-en-1-yl]carbamate]",no degradation,levels equivalent to 4 μg/ml of the tetracycline doxycycline; also recorded: levels equivalent to those of 4 μg/ml doxycycline,> 50,potent anti-wolbachial effect,dose dependent manner,without apparent cytotoxic effects,well tolerated,no toxic effects were visually apparent,levels below those seen for doxycycline,> 99,potent anti-wolbachial effect,9.0,
"C[C@H]1c2cccc(O)c2C(=O)C2=C(O)[C@]3(O)C(=O)C(C(N)=O)=C(O)[C@@H](N(C)C)[C@@H]3[C@@H](O)[C@@H]21 [doxycycline, reference compound]",,,,,,,,,,,,,8.3
